Results on two compounds are retold here after patent US6498005B1, “Homogeneous assay methods” (Caliper Technologies Corp., priority 1998, dated 2002).

Each structure is given as a SMILES string.

In one test the target is PKA (Bos taurus, UniProt P00517). The experiment in a line: PKA assays at different ATPγS concentrations on a microchip. It is filed as biochemical. To be noted: read-out: Km (Michaelis-Menten constant for the co-factor). As to the method:
(§1) A typical reaction mixture (50 μl) contained 20 mM HEPES pH 7.5, 10 mM MgCl2, 50 μM fluorescein labeled Kemptide (Research Genetics, Huntsville, Ala., USA), 500 μM ATPγS (Sigma, St. Louis, Mo., USA, #A-1388), and 1 μl of the catalytic subunit of cAMP dependent protein kinase A (Promega Corp., Madison, Wis., USA, #V5161). The approximate final concentration of the enzyme was 700 nM. […] The mixture was incubated at room temperature for 15 min and the reaction terminated by the addition of EDTA to 45 mM. As a negative control, EDTA was added to one of the reaction mixtures before the addition of the kinase. The extent of thiophosphorylation was then analyzed by capillary electrophoresis with fluorescence detection either on a Beckman P/ACE System 5500 instrument, using a 50 μm fused silica capillary with 50 mM borate, pH 8.6 as the separation buffer, or on a microfabricated chip as described in Cohen et al., Anal. Chem. 273:89-97 (1999). Substrate and product peak areas were integrated and the extent of substrate phosphorylation was determined from their ratio.
Following a 15-min incubation, the reactions were stopped by the addition of EDTA, treated with iodoacetyl-LC-biotin, and analyzed by fluorescence polarization in the presence of streptavidin. […]

For test [1], the target named is T1, catalytic subunit of cAMP dependent protein kinase A (PKA) (Bos taurus, UniProt P00517).
T1 construct: purchased Promega Corp. V5161
The experiment in a line: Homogeneous PKA kinase assay: thiophosphorylation, biotinylation, fluorescence polarization with streptavidin. The class given is biochemical. The method, then:
as §1, with “ratio. […] The outcome of the biotinylation reaction could be determined at this point by capillary electrophoresis as described above, however, this is not required, nor is it preferred. […] An aliquot (1 μl) of the biotinylation reaction from step B was diluted in 400 μl of 50 mM HEPES, pH 7.4 and its fluorescence polarization measured. […]” for “ratio.”

Turning to `Nc1ncnc2c1ncn2[C@@H]1O[C@H](COP(=O)(O)OP(=O)(O)OP(O)(O)=S)[C@@H](O)[C@H]1O` [ATPγS], the Km at PKA is roughly 6 µM.

On to `O=S(=O)(NCCNC/C=C/c1ccc(Br)cc1)c1cccc2cnccc12` [H-89], for which the half-maximal inhibitory concentration (IC50) in test [1] (H-89 0.5-10 μM, 500 μM ATPγS, 50 μM fluorescein labeled Kemptide, 15-min incubation at room temperature, estimated from substrate conversion) is roughly 5000 nM. For the same compound, the inhibition constant Ki in test [1] (calculated from IC50=Ki(1+[S]/Km), ATPγS 500 μM, Km about 6 μM) was roughly 60 nM.

Broadly, the Km is the substrate concentration at which the rate is half of its maximum. The term IC50 denotes the midpoint of a concentration-inhibition curve. Usually Ki stands for the dissociation constant of the complex between target and ligand, obtained from inhibition or displacement.
